In patent publication US20190079094A1, “SUBCELLULAR LOCALIZATION OF TARGET ANALYTES” (Beckman Coulter, Inc., priority 2016, published 2019):
“Also recorded” adds a separate entry of the source.

Key:
Format in all cases: cell-based
[1] = system: NF-κB and AKT signaling in whole-blood monocytes and T cells; experiment: LPS stimulation of whole blood, cytoplasmic vs. nuclear signaling; conditions: 1 μg/mL LPS
Description: FIGS. 7A and 7B. Stimulation of Monocytes with 1 μg/mL LPS. A) Comparison of the scatter profiles between Buffer 1 and Buffer 2 lysis, as well as the gating workflow. B) Cytoplasmic vs. nuclear signaling in whole-blood monocytes. C) Cytoplasmic vs. nuclear signaling in T cells.
(§1) The protocol for processing whole blood samples is as follows (see FIG. 1 for a workflow): 1) The sample is first mixed 1:1 with fixative, vortexed, and then incubated for 10 minutes. An extra control tube is included for each buffer, which is stained with all antibodies except for the specific signaling or target antibodies being tested in order to subtract the background signal. […] 6) Once stained, the samples are again washed 2× with PBS or wash buffer, resuspended in PBS+0.5% PFA, and read on a flow cytometer.
(§2) After data acquisition, the samples are gated, compensated, and analyzed as standard flow cytometry samples. […] For example, if staining for the subcellular distribution of FoxP3, where the Background MFIs for the Cytoplasm and Whole Cell are 1.5 and the raw FoxP3 signal is 3.5 and 31.5 for the Cytoplasm and Whole Cell, respectively, then the Cytoplasmic MFI would be calculated to be 2 (i.e., 3.5 (raw)−1.5 (background)=2) and the Nuclear MFI would be calculated to be 28 (i.e., 31.5 (raw)−1.5 (background)−2 (Cytoplasm)=28). […]

[2] = system: CREB, RelA and ERK phosphorylation in monocytes; experiment: Stimulation of monocytes with LPS or GM-CSF, cytoplasmic vs. nuclear signaling; conditions: primarily cytoplasm, 1 μg/mL LPS or 100 ng/mL GM-CSF
Description: FIG. 8. Differential Signaling in Monocytes Induced by 1 μg/mL LPS vs. 100 ng/mL GM-CSF. A) Both LPS and GM-CSF induced CREB phosphorylation at S133, accumulating maximally in the nucleus by 10 min. B) LPS stimulation induced RelA phosphorylation maximally by 10 min in both the cytoplasm and nucleus, though predominantly in the nucleus. C) Both LPS and GM-CSF stimulated ERK phosphorylation primarily in the cytoplasm, maximally by 5 min for GM-CSF and 10 min for LPS.
as §1, with “signal. The background control may also be labeled with isotype-control antibodies for more precise determination of non-specific binding, especially in cells that have characteristically high non-specific binding, such as neutrophils. For indirect antibody labeling, omitting the primary antibody, but still utilizing the secondary antibody, is a common method for determining the degree of non-specific background signal attributable to the secondary antibody, which is typically higher than the direct conjugates of target antibodies.” for “signal.”
as §2

[3] = system: granulocytes; experiment: Detergent titration for differential permeabilization of granulocytes (HSP60, Lamin A/C); conditions: detergent alone
Excerpt: FIG. 6. Titration of Detergents In Order to Identify the Optimal Concentrations for Cytoplasmic vs. Nuclear Membrane Permeabilization of Granulocytes. […] As in FIG. 5, HSP60 and Lamin A/C were used to indicate the degree of mitochondrial inner membrane and nuclear membrane permeabilization, respectively.
For Peripheral Blood Mononuclear Cells (PBMCs), cell lines, and other purified cells, Buffer 1 and Buffer 2 have different compositions than for whole blood; however, the protocol is otherwise the same. Most cell lines perform similar to PBMCs. In addition, whole-blood granulocytes may require a different buffer combination to appropriately permeabilize their cytoplasmic vs. nuclear compartments.
In some cases, using the defined buffers for the Subcellular Localization Kit may not effectively and reproducibly permeabilize granulocytes as they do mononuclear cells, and can be better targeted with a different detergent combination. […] Tween 20 at a concentration >0.5% can be seen to permeabilized the cytoplasmic+mitochondrial membranes without permeabilizing the nuclear membrane, while Digitonin and TX-100 alone at lower concentrations will permeabilize the nuclear or mitochondrial membranes, respectively. Ultimately, differential permeabilization of granulocytes can be more complex than for mononuclear cells depending on the target organelles.

Compound | signaling induced in T cells [1] | time of peak ERK phosphorylation (S202/T204) [2] | concentration permeabilizing the cytoplasmic+mitochondrial membranes without the nuclear membrane [3]
lipopolysaccharide [LPS] | did not stimulate T cells; also recorded: lack of any signaling induced in T cells | ≤ 10 min | 
CCCCCCCCCCCC(=O)OCCOCCOCCOCCOCCOCCOCCOCCOCCOCCOCCOCCOCCOCCOCCOCCOCCOCCOCCOCCOCC(OCCOCCOCCOCCOCCOCCOCCOCCOCCOCCOCCOCCOCCOCCOCCOCCOCCOCCOCCOCCO)C1OCC(OCCOCCOCCOCCOCCOCCOCCOCCOCCOCCOCCOCCOCCOCCOCCOCCOCCOCCOCCOCCO)C1OCCOCCOCCOCCOCCOCCOCCOCCOCCOCCOCCOCCOCCOCCOCCOCCOCCOCCOCCOCCO (stereo not drawn) [Tween 20, Polysorbate 20] |  |  | > 0.5%
